Assay results: patent publication US12649750B2, “Macrocyclic compounds, compositions, and methods of using thereof” (Sionna Therapeutics Inc., priority 2022, dated 2026)

Assays:
NBD1 = target: T1, NBD1 (Homo sapiens, UniProt P13569); assay: Aggregation analysis using differential static light scattering (DSLS), thermal stability of NBD1 (ΔTagg); type: binding; conditions: ΔTagg versus DMSO control, NBD1 0.2 mg/ml
T1 construct: Purified recombinant NBD1 was produced using previously described methods; made in house
How it was run: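 Purified recombinant NBD1 at 0.2 mg/ml in Tris buffer pH7.6 with 2 mM ATP, 5 mM MgCl2, 2 mM DTT and 1% glycerol was mixed with DMSO-dissolved compounds under mineral oil. Plates were heated at 1° C. per minute to 70° C., light scattering imaged every 0.5° C.; Tagg from curve inflection, minus DMSO-control mean.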

CFTR = target: T2, CFTR (Homo sapiens, UniProt P13569, DEL508-508); assay: TECC24 AUC fold over DMSO @10 μM, CFTR-mediated transepithelial chloride transport in CF-HBE cells; type: cell-based; conditions: test agent AUC divided by DMSO vehicle AUC, primary CF-HBE cells, ΔF508 homozygous donor, 48 hours incubation
T2 construct: Primary human bronchial epithelial cells from a ΔF508 homozygous CF donor; host or cells: primary human bronchial epithelial cells (CF-HBE), ΔF508 homozygous donor
How it was run: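 Value is ratio of test-agent to DMSO AUC of equivalent transepithelial Cl− current, integrated from forskolin (10 μM) stimulation to CFTR inhibitor-172 (20 μM) block, with benzamil 10 μM present. CF-HBE (ΔF508/ΔF508) cultures had 48 h compound exposure at 10 μM, 36.5° C before recording.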

T1 sequence (P13569 423-646 limits assumed): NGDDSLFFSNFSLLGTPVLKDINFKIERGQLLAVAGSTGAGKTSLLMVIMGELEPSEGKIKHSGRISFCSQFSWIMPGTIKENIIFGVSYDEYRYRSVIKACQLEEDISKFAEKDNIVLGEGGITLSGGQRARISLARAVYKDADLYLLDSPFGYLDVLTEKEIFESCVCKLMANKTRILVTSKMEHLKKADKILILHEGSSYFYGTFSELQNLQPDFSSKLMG
T2 sequence (P13569 with tags, fused parts or gaps DEL508-508): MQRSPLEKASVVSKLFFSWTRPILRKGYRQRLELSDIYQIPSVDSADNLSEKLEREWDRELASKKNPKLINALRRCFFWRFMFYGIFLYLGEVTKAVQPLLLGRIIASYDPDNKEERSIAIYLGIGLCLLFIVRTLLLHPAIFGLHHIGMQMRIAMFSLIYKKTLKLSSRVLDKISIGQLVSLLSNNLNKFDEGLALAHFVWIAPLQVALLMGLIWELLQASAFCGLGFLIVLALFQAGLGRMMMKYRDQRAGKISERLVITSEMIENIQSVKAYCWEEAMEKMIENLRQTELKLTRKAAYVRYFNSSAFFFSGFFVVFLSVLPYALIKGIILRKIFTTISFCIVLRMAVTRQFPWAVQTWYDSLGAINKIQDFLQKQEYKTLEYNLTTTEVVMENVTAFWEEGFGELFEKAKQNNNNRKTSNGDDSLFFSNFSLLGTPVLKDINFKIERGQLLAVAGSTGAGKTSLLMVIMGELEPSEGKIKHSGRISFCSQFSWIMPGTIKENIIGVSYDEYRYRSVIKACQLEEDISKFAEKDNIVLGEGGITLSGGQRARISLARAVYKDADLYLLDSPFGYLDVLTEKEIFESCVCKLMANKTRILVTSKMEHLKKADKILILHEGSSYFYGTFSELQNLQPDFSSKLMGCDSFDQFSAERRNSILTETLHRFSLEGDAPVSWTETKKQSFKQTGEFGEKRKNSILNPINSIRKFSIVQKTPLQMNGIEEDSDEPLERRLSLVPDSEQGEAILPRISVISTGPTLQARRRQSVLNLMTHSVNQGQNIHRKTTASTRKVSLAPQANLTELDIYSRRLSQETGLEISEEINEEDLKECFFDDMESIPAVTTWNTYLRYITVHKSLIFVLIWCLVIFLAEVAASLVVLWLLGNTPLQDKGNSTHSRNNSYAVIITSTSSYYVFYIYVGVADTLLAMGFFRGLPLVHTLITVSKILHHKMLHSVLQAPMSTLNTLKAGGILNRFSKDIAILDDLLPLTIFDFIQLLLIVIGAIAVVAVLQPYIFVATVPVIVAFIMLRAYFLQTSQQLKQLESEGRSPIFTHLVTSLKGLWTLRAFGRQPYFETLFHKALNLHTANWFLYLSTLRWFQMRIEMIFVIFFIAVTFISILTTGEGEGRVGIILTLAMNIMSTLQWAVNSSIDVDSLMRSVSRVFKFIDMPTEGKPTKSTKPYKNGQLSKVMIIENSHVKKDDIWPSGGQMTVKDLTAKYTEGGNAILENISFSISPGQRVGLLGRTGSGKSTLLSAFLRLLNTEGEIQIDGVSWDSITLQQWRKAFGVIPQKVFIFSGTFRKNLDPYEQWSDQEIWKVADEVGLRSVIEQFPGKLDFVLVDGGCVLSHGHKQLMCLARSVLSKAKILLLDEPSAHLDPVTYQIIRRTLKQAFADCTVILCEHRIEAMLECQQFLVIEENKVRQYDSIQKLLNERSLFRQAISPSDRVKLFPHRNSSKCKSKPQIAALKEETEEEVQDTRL

SMILES	DSLS 3D (100 μM ΔT) (NBD1)	TECC (AUC, 10 μM) (CFTR)
C[C@H](Cc1cccc(C2(C)CCCC(C)(C)CS(=O)(=O)CCc3c(c(F)cc4[nH]ccc34)C(=O)c3ccc(F)c(c3)-c3nc2nn3C)c1)C(=O)O (single isomer, unassigned) [Compound 126B]	B (a value above 5 °C and less than or equal to 10 °C is marked “B”)	B (a value between 12-20 is marked “B”)
COc1ccc2cc1-c1nc(nn1C)C(C)(c1cccc(C[C@@H](C)C(=O)O)c1)CCCC(C)(C)CS(=O)(=O)CCc1c(c(F)cc3[nH]ccc13)C2=O (single isomer, unassigned) [Compound 127A]	B (a value above 5 °C and less than or equal to 10 °C is marked “B”)	A (a TECC value less than 12 is marked “A”)
COc1ccc2cc1-c1nc(nn1C)C(C)(c1cccc(C[C@@H](C)C(=O)O)c1)CCCC(C)(C)CS(=O)(=O)CCc1c(c(F)cc3[nH]ccc13)C2=O (single isomer, unassigned) [Compound 127B]	A (an ΔTagg value less than or equal to 5 °C is marked “A”)	A (a TECC value less than 12 is marked “A”)
C[C@@H](Cc1cccc(C2(C)CCCC(C)(C)CS(=O)(=O)CCc3c(c(F)cc4[nH]ccc34)Oc3ccc(F)c(c3)-c3nc2c[nH]3)c1)C(=O)O (single isomer, unassigned) [Compound 129A]	A (an ΔTagg value less than or equal to 5 °C is marked “A”)	A (a TECC value less than 12 is marked “A”)
C[C@@H](Cc1cccc(C2(C)CCCC(C)(C)CS(=O)(=O)CCc3c(c(F)cc4[nH]ccc34)Oc3ccc(F)c(c3)-c3nc2c[nH]3)c1)C(=O)O (single isomer, unassigned) [Compound 129B]	C (a value greater than 10 °C and less than or equal to 25 °C is marked “C”)	A (a TECC value less than 12 is marked “A”)
[2H]C([2H])([2H])C1(c2cccc(C[C@H](C)C(=O)O)c2)CCCC2(COC2)CS(=O)(=O)CCc2c(c(F)cc3[nH]ccc23)Oc2ccc(F)c(c2)-c2nc1nn2C (single isomer, unassigned) [Compound 130A]	C (a value greater than 10 °C and less than or equal to 25 °C is marked “C”)	C (a value between 20 and 80 is marked “C”)
[2H]C([2H])([2H])C1(c2cccc(C[C@H](C)C(=O)O)c2)CCCC2(COC2)CS(=O)(=O)CCc2c(c(F)cc3[nH]ccc23)Oc2ccc(F)c(c2)-c2nc1nn2C (single isomer, unassigned) [Compound 130B]	C (a value greater than 10 °C and less than or equal to 25 °C is marked “C”)	C (a value between 20 and 80 is marked “C”)
CC(Cc1cccc(C2(C)CCCC(C)(C)CS(=O)(=O)CCc3c(c(F)cc4[nH]ccc34)Cn3cc(ccc3=O)-c3nc2nn3C)c1)C(=O)O (single isomer, unassigned) [Compound 132A, 3-[3-(22-fluoro-3,6,10,10-tetramethyl-12,12,26-trioxo-12λ6-thia-3,4,19,25,30-pentazapentacyclo-[23.3.1.12,5.015,23.016,20]triaconta-1(29),2(30),4,15,17,20,22,27-octaen-6-yl)phenyl]-2-methyl-propanoic Acid]	A (an ΔTagg value less than or equal to 5 °C is marked “A”)	A (a TECC value less than 12 is marked “A”)
CC(Cc1cccc(C2(C)CCCC(C)(C)CS(=O)(=O)CCc3c(c(F)cc4[nH]ccc34)Cn3cc(ccc3=O)-c3nc2nn3C)c1)C(=O)O (single isomer, unassigned) [Compound 132B, 3-[3-(22-fluoro-3,6,10,10-tetramethyl-12,12,26-trioxo-12λ6-thia-3,4,19,25,30-pentazapentacyclo-[23.3.1.12,5.015,23.016,20]triaconta-1(29),2(30),4,15,17,20,22,27-octaen-6-yl)phenyl]-2-methyl-propanoic Acid]	C (a value greater than 10 °C and less than or equal to 25 °C is marked “C”)	A (a TECC value less than 12 is marked “A”)
CC(Cc1cccc(C2(CNCC(F)(F)F)CCCC(C)(C)CS(=O)(=O)CCc3c(c(F)cc4[nH]ccc34)Oc3ccc(F)c(c3)-c3nc2nn3C)c1)C(=O)O (single isomer, unassigned) [Compound 133A, 3-[3-[22,28-difluoro-3,10,10-trimethyl-12,12-dioxo-6-[(2,2,2-trifluoroethylamino)methyl]-24-oxa-12λ6-thia-3,4,19,30-tetrazapentacyclo[23.3.1.12,5.015,23.016,20]triaconta-1(29),2(30),4,15,17,20,22,25,27-nonaen-6-yl]phenyl]-2-methyl-propanoic Acid]	C (a value greater than 10 °C and less than or equal to 25 °C is marked “C”)	C (a value between 20 and 80 is marked “C”)
CC(Cc1cccc(C2(CNCC(F)(F)F)CCCC(C)(C)CS(=O)(=O)CCc3c(c(F)cc4[nH]ccc34)Oc3ccc(F)c(c3)-c3nc2nn3C)c1)C(=O)O (single isomer, unassigned) [Compound 133B, 3-[3-[22,28-difluoro-3,10,10-trimethyl-12,12-dioxo-6-[(2,2,2-trifluoroethylamino)methyl]-24-oxa-12λ6-thia-3,4,19,30-tetrazapentacyclo[23.3.1.12,5.015,23.016,20]triaconta-1(29),2(30),4,15,17,20,22,25,27-nonaen-6-yl]phenyl]-2-methyl-propanoic Acid]	B (a value above 5 °C and less than or equal to 10 °C is marked “B”)	A (a TECC value less than 12 is marked “A”)
Cn1nc2nc1-c1cc(ccc1F)Oc1c(F)cc3[nH]ccc3c1CCS(=O)(=O)CC(C)(C)CCCC2(C)c1cccc(CC(O)C(=O)O)c1 (single isomer, unassigned) [Compound 134A, 3-[3-(22,28-Difluoro-3,6,10,10-tetramethyl-12,12-dioxo-24-oxa-12λ6-thia-3,4,19,30-tetrazapentacyclo-[23.3.1.12,5.015,23.016,20]-triaconta-1(29),2(30),4,15,17,20,22,25,27-nonaen-6-yl)phenyl]-2-hydroxy-propanoic Acid]	C (a value greater than 10 °C and less than or equal to 25 °C is marked “C”)	C (a value between 20 and 80 is marked “C”)
Cn1nc2nc1-c1cc(ccc1F)Oc1c(F)cc3[nH]ccc3c1CCS(=O)(=O)CC(C)(C)CCCC2(C)c1cccc(CC(O)C(=O)O)c1 (single isomer, unassigned) [Compound 134B, 3-[3-(22,28-Difluoro-3,6,10,10-tetramethyl-12,12-dioxo-24-oxa-12λ6-thia-3,4,19,30-tetrazapentacyclo-[23.3.1.12,5.015,23.016,20]-triaconta-1(29),2(30),4,15,17,20,22,25,27-nonaen-6-yl)phenyl]-2-hydroxy-propanoic Acid]	A (an ΔTagg value less than or equal to 5 °C is marked “A”)	A (a TECC value less than 12 is marked “A”)
COC(Cc1cccc(C2(C)CCCC(C)(C)CS(=O)(=O)CCc3c(c(F)cc4[nH]ccc34)Oc3ccc(F)c(c3)-c3nc2nn3C)c1)C(=O)O (single isomer, unassigned) [Compound 135A, 3-[3-(22,28-Difluoro-3,6,10,10-tetramethyl-12,12-dioxo-24-oxa-12λ6-thia-3,4,19,30-tetrazapentacyclo-[23.3.1.12,5.015,23.016,20]triaconta-1(29),2(30),4,15,17,20,22,25,27-nonaen-6-yl)phenyl]-2-methoxy-propanoic Acid]	A (an ΔTagg value less than or equal to 5 °C is marked “A”)	A (a TECC value less than 12 is marked “A”)
COC(Cc1cccc(C2(C)CCCC(C)(C)CS(=O)(=O)CCc3c(c(F)cc4[nH]ccc34)Oc3ccc(F)c(c3)-c3nc2nn3C)c1)C(=O)O (single isomer, unassigned) [Compound 135B, 3-[3-(22,28-Difluoro-3,6,10,10-tetramethyl-12,12-dioxo-24-oxa-12λ6-thia-3,4,19,30-tetrazapentacyclo-[23.3.1.12,5.015,23.016,20]triaconta-1(29),2(30),4,15,17,20,22,25,27-nonaen-6-yl)phenyl]-2-methoxy-propanoic Acid]	C (a value greater than 10 °C and less than or equal to 25 °C is marked “C”)	C (a value between 20 and 80 is marked “C”)
CC(Cc1cccc(C2(CN)CCCC(C)(C)CS(=O)(=O)CCc3c(c(F)cc4[nH]ccc34)Oc3ccc(F)c(c3)-c3nc2nn3C)c1)C(=O)O (single isomer, unassigned) [Compound 136A, 3-[3-[6-(aminomethyl)-22,28-difluoro-3,10,10-trimethyl-12,12-dioxo-24-oxa-12λ6-thia-3,4,19,30-tetrazapentacyclo-[23.3.1.12,5.015,23.016,20]triaconta-1(29),2(30),4,15,17,20,22,25,27-nonaen-6-yl]phenyl]-2-methyl-propanoic Acid]	A (an ΔTagg value less than or equal to 5 °C is marked “A”)	A (a TECC value less than 12 is marked “A”)
